Columns and labels:
Type in all cases: in vivo
[1] = tested on: Botrytis cinerea; experiment: Test C: tomato botrytis, preventive spray on tomato seedlings, visual disease rating; settings: preventive spray at 40 ppm, rated after 48 h + 3 days; for pest or weed control at 40 ppm: Botrytis cinerea, 120 h, read-out: Test C disease control rating (100 = 100% disease control, 0 = no disease control relative to the controls)
Description: General protocol for preparing test suspensions for Tests A-C: the test compounds were first dissolved in acetone in an amount equal to 11% of the final volume and then suspended at the desired concentration (in ppm) in acetone and purified water (50/50 mix by volume) containing 250 ppm of the surfactant Trem® 014 (polyhydric alcohol esters). The resulting test suspensions were then used in Tests A-C. Spraying a 40 ppm test suspension to the point of run-off on the test plants was the equivalent of a rate of 800 g/ha.
The test suspension was sprayed to the point of run-off on tomato seedlings. The following day the seedlings were inoculated with a spore suspension of Botrytis cinerea (the causal agent of tomato botrytis) and incubated in saturated atmosphere at 20° C. for 48 h, and then moved to a growth chamber at 27° C. for 3 additional days, after which time disease ratings were visually made.
Results for Tests A-C are given in Table A. In the Table, a rating of 100 indicates 100% disease control and a rating of 0 indicates no disease control (relative to the controls). A dash (-) indicates no test results. All results are from applications of 40 ppm.

[2] = tested on: Blumeria graminis f. sp. tritici; experiment: Test A: wheat powdery mildew, preventive spray on wheat seedlings, visual disease rating; settings: preventive spray at 40 ppm, rated 8 days after inoculation; for pest or weed control at 40 ppm: Blumeria graminis, 192 h, read-out: Test A disease control rating (100 = 100% disease control, 0 = no disease control relative to the controls)
Description: General protocol for preparing test suspensions for Tests A-C: the test compounds were first dissolved in acetone in an amount equal to 11% of the final volume and then suspended at the desired concentration (in ppm) in acetone and purified water (50/50 mix by volume) containing 250 ppm of the surfactant Trem® 014 (polyhydric alcohol esters). The resulting test suspensions were then used in Tests A-C. Spraying a 40 ppm test suspension to the point of run-off on the test plants was the equivalent of a rate of 800 g/ha. The test suspension was sprayed to the point of run-off on wheat seedlings. The following day the seedlings were inoculated with a spore dust of Blumeria graminis f. sp. tritici, (the causal agent of wheat powdery mildew) and incubated in a growth chamber at 20° C. for 8 days, after which time disease ratings were visually made. Results for Tests A-C are given in Table A. In the Table, a rating of 100 indicates 100% disease control and a rating of 0 indicates no disease control (relative to the controls). A dash (-) indicates no test results. All results are from applications of 40 ppm.

[3] = tested on: Septoria tritici; experiment: Test B: wheat leaf blotch, preventive spray on wheat seedlings, visual disease rating; settings: preventive spray at 40 ppm, rated after 48 h + 19 days; for pest or weed control at 40 ppm: Zymoseptoria tritici, 504 h, read-out: Test B disease control rating (100 = 100% disease control, 0 = no disease control relative to the controls)
Description: General protocol for preparing test suspensions for Tests A-C: the test compounds were first dissolved in acetone in an amount equal to 11% of the final volume and then suspended at the desired concentration (in ppm) in acetone and purified water (50/50 mix by volume) containing 250 ppm of the surfactant Trem® 014 (polyhydric alcohol esters). The resulting test suspensions were then used in Tests A-C. Spraying a 40 ppm test suspension to the point of run-off on the test plants was the equivalent of a rate of 800 g/ha. The test suspension was sprayed to the point of run-off on wheat seedlings. The following day the seedlings were inoculated with a spore suspension of Septoria tritici (the causal agent of wheat leaf blotch) and incubated in a saturated atmosphere at 20° C. for 48 h, and then moved to a growth chamber at 20° C. for 19 days, after which time disease ratings were visually made. Results for Tests A-C are given in Table A. In the Table, a rating of 100 indicates 100% disease control and a rating of 0 indicates no disease control (relative to the controls). A dash (-) indicates no test results. All results are from applications of 40 ppm.

Compound	pest or weed control at 40 ppm [1] [%]	pest or weed control at 40 ppm [2] [%]	pest or weed control at 40 ppm [3] [%]	Test C disease control rating (100 = 100% disease control, 0 = no disease control relative to the controls) [1] [%]	Test A disease control rating (100 = 100% disease control, 0 = no disease control relative to the controls) [2] [%]	Test B disease control rating (100 = 100% disease control, 0 = no disease control relative to the controls) [3] [%]
CCC(Oc1ccc2ccc(Br)cc2c1)C(=O)NC(C)(C)CF (stereo not drawn) [Compound 26, 2-[(7-bromo-2-naphthalenyl)oxy]-N-(2-fluoro-1,1-dimethylethyl)butanamide]	99	100	100	–	–	–
C#CC(C)(C)NC(=O)C(OC)Oc1ccc2ccc(Br)cc2c1 (stereo not drawn) [Compound 94]	–	–	–	100	99	100
CCC(Oc1cnc2ccc(Br)cc2c1)C(=O)NC(C)(C)COC (stereo not drawn) [Compound 48]	–	–	–	99	96	99
CCOc1ccc2ccc(OC(OC)C(=O)NC(C)(C)COC)cc2c1 (stereo not drawn) [Compound 70]	–	–	–	98	100	100
CCC(Oc1ccc2ccc(I)cc2c1)C(=O)NC(C)(C)COC (stereo not drawn) [Compound 92]	–	–	–	100	100	100
COCC(C)(C)NC(=O)C(OC)Oc1ccc2ccc(I)cc2c1 (stereo not drawn) [Compound 103, 2-[(7-iodo-2-naphthalenylyl)oxy]-2-methoxy-N-(2-methoxy-1,1-dimethylethyl)acetamide]	–	–	–	100	100	100
CCC(Oc1ccc2ccc(OC)cc2c1)C(=O)NC(C)(C)COC (stereo not drawn) [Compound 88]	–	–	–	100	99	100
CCC(Oc1ccc2ccc(N)cc2c1)C(=O)NC(C)(C)C (stereo not drawn) [Compound 29]	95	0	76	–	–	–
CCC(Oc1cnc2ccc(F)cc2c1)C(=O)NC(C)(C)COC (stereo not drawn) [Compound 54]	–	–	–	0	0	71
CCOc1ccc2ccc(OC(OCC)C(=O)NC(C)(C)C)cc2c1 (stereo not drawn) [Compound 121]	99	29	100	–	–	–
C#CC(C)(C)NC(=O)C(CC)Oc1ccc2ccc(OCC)cc2c1 (stereo not drawn) [Compound 76, N-(1,1-dimethyl-2-propyn-1-yl)-2-[(7-ethoxy-2-naphthalenyl)oxy]butanamide]	100	100	100	–	–	–
CCC(Oc1ccc2ccc(C#N)cc2c1)C(=O)NC(C)(C)C (stereo not drawn) [Compound 33]	95	62	99	–	–	–
COCC(C)(C)NC(=O)C(C)Oc1cnc2ccc(Br)cc2c1 (stereo not drawn) [Compound 60]	–	–	–	95	0	74
CCC(Oc1ccc2ccc(C#C[Si](C)(C)C)cc2c1)C(=O)NC(C)(C)COC (stereo not drawn) [Compound 96]	–	–	–	99	0	100
CCC(Oc1cnc2ccc(I)cc2c1)C(=O)NC(C)(C)COC (stereo not drawn) [Compound 53]	–	–	–	99	99	100
CCC(Oc1ccc2ccc(Br)cc2c1)C(=O)NC(C)(C)COP(C)(C)=O (stereo not drawn) [Compound 10]	–	–	–	98	21	99
C#Cc1ccc2ncc(OC(CC)C(=O)NC(C)(C)CC)cc2c1 (stereo not drawn) [Compound 150]	–	–	–	97	96	100
CCC(Oc1ccc2ccc(Br)cc2c1)C(=O)NC(C)(C)CNC=O (stereo not drawn) [Compound 11]	–	–	–	100	21	99
CCOCC(C)(C)NC(=O)C(CC)Oc1cnc2ccc(Cl)cc2c1 (stereo not drawn) [Compound 50]	–	–	–	90	84	98
C#Cc1ccc2ccc(OC(CC)C(=O)NC(C)(C)C#N)cc2c1 (stereo not drawn) [Compound 110, N-(1-cyano-1-methylethyl)-2-[(7-ethynyl-2-naphthalenyl)oxy]butanamide]	100	100	100	–	–	–
COC(Oc1ccc2ccc(C(F)F)cc2c1)C(=O)NC(C)(C)C#N (stereo not drawn) [Compound 79]	–	–	–	99	72	98
CCOc1ccc2ccc(OC(CC)C(=O)NC(C)(C)C)cc2c1 (stereo not drawn) [Compound 74, N-(1,1-dimethylethyl)-2-[(7-ethoxy-2-naphthalenyl)oxy]butanamide]	100	100	100	–	–	–
C#CC(C)(C)NC(=O)C(CC)Oc1cnc2ccc(F)cc2c1 (stereo not drawn) [Compound 47]	–	–	–	70	0	20
CC#Cc1ccc2ncc(OC(OC)C(=O)NC(C)(C)COC)cc2c1 (stereo not drawn) [Compound 158]	–	–	–	99	98	38
COCC(C)(C)NC(=O)C(OC)Oc1ccc2ccc(OC)cc2c1 (stereo not drawn) [Compound 83]	–	–	–	100	96	99

Source: patent US20120283216A1, “FUNGICIDAL 2-(BICYCLIC ARYLOXY)CARBOXAMIDES” (priority 2009, published 2012)
